In patent US20080026996A1, “Selective Vpac2 Receptor Reptide Agonists” (ELI LILLY AND COMPANY, priority 2004, published 2008):
Read-outs that look alike come from different tables or passages of the source. Where a SMILES comes first, the peptide text is derived from it. Where no end group is shown, it is not given here. The star is where a group is joined. Hexanoyl = CCCCCC(=O)*

Experiments:
human VPAC1 = target: T1, human VPAC1 (Homo sapiens, UniProt P32241); assay: Filter binding assay, membranes of cells transiently transfected with human VPAC1, 125I-labeled VIP tracer (Table 2); design: expressed in transfected cells
T1 sequence (P32241 31-457): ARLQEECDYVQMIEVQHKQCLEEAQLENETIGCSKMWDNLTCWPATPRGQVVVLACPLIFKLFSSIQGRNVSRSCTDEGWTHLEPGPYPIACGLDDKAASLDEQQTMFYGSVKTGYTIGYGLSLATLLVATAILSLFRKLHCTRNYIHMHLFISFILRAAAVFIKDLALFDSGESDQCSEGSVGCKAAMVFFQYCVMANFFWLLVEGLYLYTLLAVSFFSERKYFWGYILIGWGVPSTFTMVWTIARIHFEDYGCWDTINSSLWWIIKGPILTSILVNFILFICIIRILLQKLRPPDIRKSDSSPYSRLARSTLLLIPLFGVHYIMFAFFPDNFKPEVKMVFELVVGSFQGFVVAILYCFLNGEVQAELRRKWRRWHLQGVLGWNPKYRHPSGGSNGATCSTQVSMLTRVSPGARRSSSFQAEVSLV
Description: (§1) For this assay, the solutions and equipment include:
(§2) Presoak solution: 0.5% Polyethyleneamine in Aqua dest.
(§3) Buffer for flushing filter plates: 25 mM HEPES pH 7.4
(§4) Blocking buffer: 25 mM HEPES pH 7.4; 0.2% protease free BSA
(§5) Assay buffer: 25 mM HEPES pH 7.4; 0.5% protease free BSA
(§6) Dilution and assay plate: PS-Microplate, U form
(§7) Filtration Plate Multiscreen FB Opaque Plate; […] Type B Glasfiber filter
(§8) In order to prepare the filter plates, aspirate the presoak solution by vacuum filtration. Flush the plates twice with 200 μL flush buffer. Add 200 μL blocking buffer to the filter plate. The filter plate is then incubated […] for 1 hour at room temperature.
(§9) Fill the assay plate with 25 μL assay buffer, 25 μL membranes (2.5 μg) suspended in assay buffer, 25 μL compound (agonist) in assay buffer, and 25 μL tracer (about 40000 cpm) in assay buffer. Incubate the filled plate for 1 hour with shaking.
(§10) Conduct the transfer from assay plate to filter plate. Aspirate the blocking buffer by vacuum filtration and wash two times with flush buffer. Transfer 90 μL from the assay plate to the filter plate. Aspirate the 90 μL transferred from assay plate and wash three times with 200 μL flush buffer. Remove the plastic support. Dry for 1 hour at 60° C. Add 30 μL Microscint. Perform the count.

human VPAC2 [1] = target: T2, human VPAC2 (Homo sapiens, UniProt P41587); assay: Alpha screen cAMP in vitro potency, human VPAC2 receptor; type: cell-based
T2 construct: expressed in transfected cells
T2 sequence (P41587 24-438): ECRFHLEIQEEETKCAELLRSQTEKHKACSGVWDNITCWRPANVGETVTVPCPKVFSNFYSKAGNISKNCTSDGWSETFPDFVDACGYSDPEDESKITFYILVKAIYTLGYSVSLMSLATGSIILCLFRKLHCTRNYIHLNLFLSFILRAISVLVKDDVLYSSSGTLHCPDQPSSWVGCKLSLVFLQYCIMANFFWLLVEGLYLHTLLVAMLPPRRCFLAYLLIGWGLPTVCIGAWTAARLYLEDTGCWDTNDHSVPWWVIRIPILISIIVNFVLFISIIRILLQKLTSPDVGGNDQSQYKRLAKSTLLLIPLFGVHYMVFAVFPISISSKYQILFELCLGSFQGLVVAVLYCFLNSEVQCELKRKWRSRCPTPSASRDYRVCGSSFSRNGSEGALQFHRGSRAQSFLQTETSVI
Description: Alpha screen: Cells are washed in the culture flask once with PBS. Then, the cells are rinsed with enzyme free dissociation buffer. The dissociated cells are removed. The cells are then spun down and washed in stimulation buffer. For each data point, 50,000 cells suspended in stimulation buffer are used. To this buffer, Alpha screen acceptor beads are added along with the stimuli. This mixture is incubated for 60 minutes. Lysis buffer and Alpha screen donor beads are added and are incubated for 60 to 120 minutes. The Alpha screen signal (indicative of intracellular cAMP levels) is read in a suitable instrument (e.g. AlphaQuest from Perkin-Elmer). Steps including Alpha screen donor and acceptor beads are performed in reduced light.

human PAC1 = target: T3, human PAC1 (Homo sapiens, UniProt P41586); assay: Filter binding assay, membranes of cells transiently transfected with human PAC1, 125I-labeled PACAP-27 tracer (Table 2); design: expressed in transfected cells
T3 sequence (P41586 21-468): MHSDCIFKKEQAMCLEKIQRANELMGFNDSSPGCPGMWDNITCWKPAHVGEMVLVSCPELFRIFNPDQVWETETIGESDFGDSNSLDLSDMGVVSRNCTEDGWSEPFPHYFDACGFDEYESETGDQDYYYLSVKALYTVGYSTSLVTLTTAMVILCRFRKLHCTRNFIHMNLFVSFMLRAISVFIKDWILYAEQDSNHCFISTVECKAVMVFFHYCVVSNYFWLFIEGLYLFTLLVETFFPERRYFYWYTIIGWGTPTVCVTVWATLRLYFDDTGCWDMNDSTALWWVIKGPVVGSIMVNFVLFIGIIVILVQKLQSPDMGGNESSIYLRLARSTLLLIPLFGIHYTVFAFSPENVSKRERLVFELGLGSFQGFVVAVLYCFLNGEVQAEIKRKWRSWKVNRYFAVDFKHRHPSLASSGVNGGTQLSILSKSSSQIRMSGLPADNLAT
Description: as §1, §2, §3, §4, §5, §6, §7, §8, §9, §10

human VPAC2 [2] = target: T2, human VPAC2; assay: Filter binding assay, membranes of stable VPAC2 cell line, 125I-labeled VIP tracer (Table 2)
Description: as §1, §2, §3, §4, §5, §6, §7, §8, §9, §10

[3] = read-out: Human VPAC1 Receptor Binding
[4] = cAMP generation, single result from two analyses performed in a single run, read-out: Human VPAC2 Receptor: Alpha Screen EC50
[5] = read-out: Human PAC1 Receptor Binding
[6] = read-out: Human VPAC2 Receptor Binding

## CCCCCC(=O)N[C@@H](Cc1c[nH]cn1)C(=O)N[C@@H](CO)C(=O)N[C@@H](CC(=O)O)C(=O)N[C@@H](C)C(=O)N[C@H](C(=O)N[C@@H](Cc1ccccc1)C(=O)N[C@H](C(=O)N[C@@H](CC(=O)O)C(=O)N[C@@H](CC(N)=O)C(=O)N[C@@H](Cc1ccc(O)cc1)C(=O)N[C@H](C(=O)N[C@@H](CCCNC(=N)N)C(=O)N[C@@H](CC(C)C)C(=O)N[C@@H](CCCNC(=N)N)C(=O)N[C@@H](CCCCN)C(=O)N[C@@H](CCC(N)=O)C(=O)N[C@H](C(=O)N[C@@H](C)C(=O)N[C@@H](C)C(=O)N[C@@H](CCC(N)=O)C(=O)N[C@@H](CCCCN)C(=O)N[C@@H](Cc1ccc(O)cc1)C(=O)N[C@@H](CC(C)C)C(=O)N[C@@H](CC(N)=O)C(=O)N[C@@H](CCC(N)=O)C(=O)N[C@@H](CC(C)C)C(=O)N[C@@H](CCCCN)C(=O)N[C@@H](CCCCN)C(=O)NCC(=O)NCC(=O)N1CCC[C@H]1C(=O)N[C@@H](CO)C(=O)N[C@@H](CO)C(=O)NCC(=O)N[C@@H](C)C(=O)N1CCC[C@H]1C(=O)N1CCC[C@H]1C(=O)N1CCC[C@H]1C(=O)N[C@@H](CO)C(=O)O)C(C)C)[C@@H](C)O)[C@@H](C)O)C(C)C [Agonist P144] (Hexanoyl-HSDAVFTDNYTRLRKQVAAQKYLNQLKKGGPSSGAPPPS-OH; C-terminus assumed)
Human VPAC1; [3]
  IC50: 4.43 nM
Human VPAC2 [1]; [4]
  EC50: 0.32 nM
Human PAC1; [5]
  IC50: 1180 nM
Human VPAC2 [2]; [6]
  IC50: 0.57 nM

## Hexanoyl-HSDAVFTDNYTRLRKQVAAKKYLQSIKNSRGGPSSGAPPPS [Agonist P122]
Human VPAC1; [3]
  IC50: 77.6 nM
Human VPAC2 [1]; [4]
  EC50: 0.14 nM
Human PAC1; [5]
  IC50: 304 nM
Human VPAC2 [2]; [6]
  IC50: 0.17 nM

## Hexanoyl-HSDAVFTDNYTRLRKQVAAKKFLQSIKNKRYGGPSSGAPPPS [Agonist P130]
Human VPAC1; [3]
  IC50: 233 nM
Human VPAC2 [1]; [4]
  EC50: 0.77 nM
Human PAC1; [5]
  IC50: 444 nM
Human VPAC2 [2]; [6]
  IC50: 0.43 nM

## Hexanoyl-HSDAVFTDNYTRLRKQVAAKKYLQWIKNKRYGGPSSGAPPPS [Agonist P117]
Human VPAC1; [3]
  IC50: 442 nM
Human VPAC2 [1]; [4]
  EC50: 0.2 nM
Human PAC1; [5]
  IC50: 243 nM
Human VPAC2 [2]; [6]
  IC50: 0.51 nM

## CCCCCC(=O)N[C@@H](Cc1c[nH]cn1)C(=O)N[C@@H](CO)C(=O)N[C@@H](CC(=O)O)C(=O)N[C@@H](C)C(=O)N[C@H](C(=O)N[C@@H](Cc1ccccc1)C(=O)N[C@H](C(=O)N[C@@H](CC(=O)O)C(=O)N[C@@H](CC(N)=O)C(=O)N[C@@H](Cc1ccc(O)cc1)C(=O)N[C@H](C(=O)N[C@@H](CCCNC(=N)N)C(=O)N[C@@H](CC(C)C)C(=O)N[C@@H](CCCNC(=N)N)C(=O)N[C@@H](CCCCN)C(=O)N[C@@H](CCC(N)=O)C(=O)N[C@H](C(=O)N[C@@H](C)C(=O)N[C@@H](C)C(=O)N[C@@H](CCCCN)C(=O)N[C@@H](CCCCN)C(=O)N[C@@H](Cc1ccc(O)cc1)C(=O)N[C@@H](CC(C)C)C(=O)N[C@@H](CCC(N)=O)C(=O)N[C@@H](CO)C(=O)N[C@H](C(=O)N[C@@H](CCCCN)C(=O)N[C@@H](CC(N)=O)C(=O)NCC(=O)NCC(=O)N1CCC[C@H]1C(=O)N[C@@H](CO)C(=O)N[C@@H](CO)C(=O)NCC(=O)N[C@@H](C)C(=O)N1CCC[C@H]1C(=O)N1CCC[C@H]1C(=O)N1CCC[C@H]1C(=O)N[C@@H](CO)C(=O)O)[C@@H](C)CC)C(C)C)[C@@H](C)O)[C@@H](C)O)C(C)C [Agonist P154] (Hexanoyl-HSDAVFTDNYTRLRKQVAAKKYLQSIKNGGPSSGAPPPS-OH; C-terminus assumed)
Human VPAC1; [3]
  IC50: 141 nM
Human VPAC2 [1]; [4]
  EC50: 0.18 nM
Human PAC1; [5]
  IC50: 1960 nM
Human VPAC2 [2]; [6]
  IC50: 0.31 nM

## Hexanoyl-HSDAVFTDNYTRLRKQVAAKKYLQIIKNKRYGGPSSGAPPPS [Agonist P113]
Human VPAC1; [3]
  IC50: 293 nM
Human VPAC2 [1]; [4]
  EC50: 0.26 nM
Human PAC1; [5]
  IC50: 189 nM
Human VPAC2 [2]; [6]
  IC50: 0.69 nM

## Hexanoyl-HSDAVFTDNYTRLRRQVAARRYLQSIRNRRYGGPSSGAPPPS [Agonist P98]
Human VPAC1; [3]
  IC50: 69 nM
Human VPAC2 [1]; [4]
  EC50: 0.15 nM
Human PAC1; [5]
  IC50: 96.3 nM
Human VPAC2 [2]; [6]
  IC50: 0.17 nM

## Hexanoyl-HSDAVFTDNYTKLKKQVAAKKYLQSIKNKKYGGPSSGAPPPS [Agonist P103]
Human VPAC1; [3]
  IC50: 228 nM
Human VPAC2 [1]; [4]
  EC50: 0.12 nM
Human PAC1; [5]
  IC50: 333 nM
Human VPAC2 [2]; [6]
  IC50: 0.08 nM

## Hexanoyl-HSDAVFTDNYTRLLAQLALQKYLQSIKNKRYGGPSSGAPPPS [Agonist P195]
Human VPAC1; [3]
  IC50: > 3000 nM
Human VPAC2 [1]; [4]
  EC50: 0.25 nM
Human PAC1; [5]
  IC50: 139 nM
Human VPAC2 [2]; [6]
  IC50: 2.34 nM

## CCCCCC(=O)N[C@@H](Cc1c[nH]cn1)C(=O)N[C@@H](CO)C(=O)N[C@@H](CC(=O)O)C(=O)N[C@@H](C)C(=O)N[C@H](C(=O)N[C@@H](Cc1ccccc1)C(=O)N[C@H](C(=O)N[C@@H](CC(=O)O)C(=O)N[C@@H](CC(N)=O)C(=O)N[C@@H](Cc1ccc(O)cc1)C(=O)N[C@H](C(=O)N[C@@H](CCCNC(=N)N)C(=O)N[C@@H](CC(C)C)C(=O)N[C@@H](CCCNC(=N)N)C(=O)N[C@@H](CCCCN)C(=O)N[C@@H](CCC(N)=O)C(=O)N[C@@H](CCSC)C(=O)N[C@@H](C)C(=O)N[C@@H](C)C(=O)N[C@@H](CCC(N)=O)C(=O)N[C@@H](CCCCN)C(=O)N[C@@H](Cc1ccc(O)cc1)C(=O)N[C@@H](CC(C)C)C(=O)N[C@@H](CC(N)=O)C(=O)N[C@@H](CCC(N)=O)C(=O)N[C@@H](CC(C)C)C(=O)N[C@@H](CCCCN)C(=O)N[C@@H](CCCCN)C(=O)NCC(=O)NCC(=O)N1CCC[C@H]1C(=O)N[C@@H](CO)C(=O)N[C@@H](CO)C(=O)NCC(=O)N[C@@H](C)C(=O)N1CCC[C@H]1C(=O)N1CCC[C@H]1C(=O)N1CCC[C@H]1C(=O)N[C@@H](CO)C(=O)O)[C@@H](C)O)[C@@H](C)O)C(C)C [Agonist P143] (Hexanoyl-HSDAVFTDNYTRLRKQMAAQKYLNQLKKGGPSSGAPPPS-OH; C-terminus assumed)
Human VPAC1; [3]
  IC50: 605 nM
Human VPAC2 [1]; [4]
  EC50: 0.1 nM
Human PAC1; [5]
  IC50: 1080 nM
Human VPAC2 [2]; [6]
  IC50: 0.5 nM

## MHSDAVFTDNYTRLLAKLALQKYLQSIKNKRYGGPSSGAPPPS [Agonist P140]
Human VPAC1
  IC50: 1140 nM
Human VPAC2 [1]
  EC50: 0.07 nM
Human PAC1
  IC50: 485 nM
Human VPAC2 [2]
  IC50: 1.94 nM
